Here are results for 66 compounds from US10464896B2, “Efflux-pump inhibitors and therapeutic uses thereof” (Basilea Pharmaceutica International AG, priority 2015, dated 2019).

One experiment concerns E. coli ATCC25922. Kind of experiment: Antibacterial activity in combination with minocycline (growth inhibition). Type of experiment: cell-based. The settings on record: Escherichia coli, ATCC25922, compound at 25 μM; minocycline 0.25 μg/mL; OD625 23 h minus 1 h; read-out: residual growth of E. coli ATCC25922 (% of uninhibited control) with minocycline. As for the experimental part: Antibacterial activity in combination with minocycline or with linezolid
Inhibition of growth was measured with E. coli ATCC25922 and P. aeruginosa PAO1 in a 96-well plate format. Cation-adjusted Müller-Hinton broth (caMHB) was inoculated with an overnight culture and incubated at 37° C. on a shaker until OD625 reached 0.6 to 0.7. Density was adjusted to OD600=0.5 by addition of caMHB. 35 μL of the suspension were diluted to 35 mL with caMHB and supplemented with minocycline at the subinhibitory doses of 0.25 μg/mL for E. coli and 8 μg/mL for P. aeruginosa or with linezolid at the subinhibitory dose of 128 μg/mL for E. coli and P. aeruginosa. Each well contained 1 μL of test compound in 100 μL caMHB with minocycline or with linezolid.
Plates were incubated at 37° C. on a plate shaker. OD625 was measured at 1 h, 6 h, and at 23 h.
The difference between OD at 23 h and at 1 h was taken as measure for cell density and compared to controls without inhibitor (i.e. uninhibited control). Results were expressed as residual growth (% of uninhibited control). Enhancement of minocycline or linezolid activity caused reduced residual growth.
As to `C=CCOc1cc(CNCC2CCNC2)cc(CSc2ccc(Cl)cc2Br)c1` (stereo not drawn) [Example 194], the activity at 25 µM was at most 10%.
Same read-out and setting: in the case of `C=CCOc1cc(CNCC2CNC2)cc(CSc2ccc(Cl)cc2Br)c1` [Example 196] it was at most 10%; in that of `COC(=O)c1ccc(COc2cc(CNCC3CCNC3)cc(OCc3ccc(Cl)cc3Br)c2)cc1` (stereo not drawn) [Example 197], at most 10%.
`Clc1ccc(/C=C/c2cc(CNCC3CNC3)cc(OCc3ccccc3)c2)c(Br)c1` [Example 198]: the activity at 25 µM is at most 10%.
Still for that read-out and setting: in the case of `Clc1ccc(/C=C/c2cc(Cl)ccc2OCCCNCC2CNC2)c(Br)c1` [Example 199] it was at most 10%.
For `Clc1ccc(/C=C/c2ccccc2OCCCNCC2CNC2)c(Br)c1` [Example 200], the activity at 25 µM was at most 10%.
Still for that read-out and setting: as for `Clc1ccc(/C=C/c2cccc(OCCCNCC3CNC3)c2)c(Br)c1` [Example 201, N-(azetidin-3-ylmethyl)-3-[3-[(E)-2-(2-bromo-4-chloro-phenyl)vinyl]phenoxy]propan-1-amine], the figure is at most 10%; as for `Clc1ccc(/C=C/c2cccc(OCCCNCC3CCNC3)c2)c(Br)c1` (stereo not drawn) [Example 202], at most 10%.
On the same count and under the same terms, in the case of `Clc1ccc(/C=C/c2ccccc2OCCCNCC2CCNC2)c(Br)c1` (stereo not drawn) [Example 203] it was at most 10%.
The same measure, in the same setting: in the case of `O=C(O)c1ccc(COc2cc(CNCC3CCNC3)cc(OCc3ccc(Cl)cc3Br)c2)cc1` (stereo not drawn) [Example 205] it was at most 10%; in that of `Ic1ccc(COc2cccc(CNCC3CCNC3)c2)cc1` (stereo not drawn) [Example 207], at most 10%.
As for `Clc1ccc(/C=C/c2cc(Cl)ccc2OCCNCC2CNC2)c(Br)c1` [Example 209], the activity at 25 µM is at most 10%.
On the same count and under the same terms, in the case of `Clc1ccc(/C=C/c2cc(Cl)ccc2OCCNCC2CCNC2)c(Br)c1` (stereo not drawn) [Example 210] it was at most 10%.
On the same count and under the same terms, as for `C=CCOc1ccc(OCCNCC2CCNC2)c(/C=C/c2ccc(Cl)cc2Br)c1` (stereo not drawn) [Example 211], the figure is at most 10%.
Same read-out and setting: as for `C=CCOc1ccc(OCCNCC2CNC2)c(/C=C/c2ccc(Cl)cc2Br)c1` [Example 212], the figure is at most 10%.
In the case of `C=CCOc1ccc(OCCCNCC2CCNC2)c(/C=C/c2ccc(Cl)cc2Br)c1` (stereo not drawn) [Example 213], the activity at 25 µM is at most 10%.
Still for that read-out and setting: in the case of `C=CCOc1ccc(OCCCNCC2CNC2)c(/C=C/c2ccc(Cl)cc2Br)c1` [Example 214] it was at most 10%; in that of `CC(C)(C)c1ccc(COc2ccc(CNCC3CCNC3)cc2)cc1` (stereo not drawn) [Example 215], at most 10%; in that of `CC(C)(C)c1ccc(COc2cccc(CNCC3CCNC3)c2)cc1` (stereo not drawn) [Example 216], at most 10%.
Same read-out and setting: as for `CC(C)c1cc(CNCC2CCNC2)cc(OCc2ccc(Cl)cc2Br)c1` (stereo not drawn) [Example 217], the figure is at most 10%.
Take `CC(C)(C)c1cc(CNCC2CCNC2)cc(OCc2ccc(Cl)cc2Br)c1` (stereo not drawn) [Example 218]: the activity at 25 µM is at most 10%.
On the same count and under the same terms, as for `CC(C)c1cc(CNCC2CNC2)cc(OCc2ccc(Cl)cc2Br)c1` [Example 224], the figure is at most 10%; as for `CC(C)(C)c1cc(CNCC2CNC2)cc(OCc2ccc(Cl)cc2Br)c1` [Example 225], at most 10%; as for `CC(C)(C)c1ccc(COc2cc(Cl)cc(CNC3CCNCC3)c2)cc1` [Example 226], at most 10%.
Take `CC(C)(C)c1ccc(COc2cc(Cl)cc(CNCC3CCNC3)c2)cc1` (stereo not drawn) [Example 227]: the activity at 25 µM is at most 10%.
Same read-out and setting: as for `CC(C)(C)c1ccc(COc2cc(Cl)cc(CNCC3CNC3)c2)cc1` [Example 228], the figure is at most 10%; as for `Clc1ccc(COc2cccc(CNCC3CNC3)c2)c(I)c1` [Example 229], at most 10%.
Same read-out and setting: as for `Clc1ccc(COc2cccc(CNCC3CCNC3)c2)c(I)c1` (stereo not drawn) [Example 230], the figure is at most 10%; as for `CC(C)(C)c1ccc(COc2ccc(CNCC3CNC3)cc2)cc1` [Example 231], at most 10%.
The same measure, in the same setting: as for `CC(C)(C)c1ccc(/C=C/c2cccc(CNCC3CCNC3)c2)cc1` (stereo not drawn) [Example 233], the figure is at most 10%; as for `CC(C)(C)c1ccc(/C=C/c2cccc(CNCC3CNC3)c2)cc1` [Example 234], at most 10%; as for `CC(C)(C)c1ccc(/C=C\c2cccc(CNC3CCNCC3)c2)cc1` [Example 235], at most 10%.
As to `CC(C)(C)c1ccc(/C=C\c2cccc(CNCC3CCNC3)c2)cc1` (stereo not drawn) [Example 236, 1-[3-[(Z)-2-(4-tert-butylphenyl)vinyl]phenyl]-N-(pyrrolidin-3-ylmethyl)methanamine], the activity at 25 µM is at most 10%.
Same read-out and setting: in the case of `CC(C)(C)c1ccc(/C=C\c2cccc(CNCC3CNC3)c2)cc1` [Example 237] it was at most 10%.
The same measure, in the same setting: in the case of `Clc1ccc(COc2cc(CNCC3CCNC3)cc(OCCN3CCOCC3)c2)c(Br)c1` (stereo not drawn) [Example 238] it was at most 10%; in that of `Clc1ccc(COc2cc(CNCC3CNC3)cc(OCCN3CCOCC3)c2)c(Br)c1` [Example 239], at most 10%.
Regarding `CC(C)(C)c1ccc(/C=C/c2cccc(CNC3CCNCC3)c2)cc1` [Example 240], the activity at 25 µM was at most 10%.
On the same count and under the same terms, as for `Clc1ccc(/C=C\c2cc(CNCC3CCNC3)cc(OCCN3CCOCC3)c2)c(Br)c1` (stereo not drawn) [Example 241], the figure is at most 10%; as for `Clc1ccc(/C=C\c2cc(CNCC3CNC3)cc(OCCN3CCOCC3)c2)c(Br)c1` [Example 242], at most 10%.
Take `Clc1ccc(/C=C/c2cc(CNCC3CNC3)cc(OCCN3CCOCC3)c2)c(Br)c1` [Example 243]: the activity at 25 µM is at most 10%.
The same measure, in the same setting: as for `Clc1ccc(/C=C/c2cc(CNCC3CCNC3)cc(OCCN3CCOCC3)c2)c(Br)c1` (stereo not drawn) [Example 246], the figure is at most 10%; as for `C[N+]1(C)CC(OCCOc2cc(CNCC3CCNC3)cc(OCc3ccc(Cl)cc3Br)c2)CC1C(=O)O` (stereo not drawn) [Example 247], at most 10%; as for `C[N+]1(C)CC(OCCOc2cc(CNCC3CNC3)cc(OCc3ccc(Cl)cc3Br)c2)CC1C(=O)O` (stereo not drawn) [Example 248], at most 10%.
On the same count and under the same terms, as for `CN1CC(OCCOc2cc(CNCC3CNC3)cc(OCc3ccc(Cl)cc3Br)c2)CC1C(=O)O` (stereo not drawn) [Example 249], the figure is at most 10%.
`Clc1ccc(COc2cc(CNCC3CNC3)cc(OCCc3c[nH]cn3)c2)c(Br)c1` [Example 252]: the activity at 25 µM is at most 10%.
As for `Clc1ccc(/C=C\c2cc(CNCC3CCNC3)cc(OCCc3ccncc3)c2)c(Br)c1` (stereo not drawn) [Example 253], the activity at 25 µM was at most 10%.
Same read-out and setting: as for `Clc1ccc(/C=C/c2cc(CNCC3CCNC3)cc(OCCc3ccncc3)c2)c(Br)c1` (stereo not drawn) [Example 254], the figure is at most 10%; as for `Clc1ccc(/C=C\c2cc(CNCC3CNC3)cc(OCCc3c[nH]cn3)c2)c(Br)c1` [Example 255], at most 10%; as for `Clc1ccc(COc2cc(CNCC3CNC3)cc(OCCc3ccncc3)c2)c(Br)c1` [Example 256], at most 10%.
The same measure, in the same setting: in the case of `Clc1ccc(/C=C\c2cc(CNCC3CNC3)cc(OCCc3ccncc3)c2)c(Br)c1` [Example 257] it was at most 10%.
`Clc1ccc(COc2cc(CNCC3CCNC3)cc(OCCc3ccncc3)c2)c(Br)c1` (stereo not drawn) [Example 258]: the activity at 25 µM is at most 10%.
The same measure, in the same setting: as for `Clc1ccc(/C=C\c2cc(CNCC3CCNC3)cc(OCCc3c[nH]cn3)c2)c(Br)c1` (stereo not drawn) [Example 259], the figure is at most 10%.
Take `Clc1ccc(/C=C/c2cc(CNCC3CNC3)cc(OCCc3ccncc3)c2)c(Br)c1` [Example 260]: the activity at 25 µM is at most 10%.
Same read-out and setting: as for `Clc1ccc(/C=C/c2cc(CNCC3CNC3)cc(OCCc3c[nH]cn3)c2)c(Br)c1` [Example 261], the figure is at most 10%; as for `Clc1ccc(/C=C/c2cc(CNCC3CCNC3)cc(OCCc3c[nH]cn3)c2)c(Br)c1` (stereo not drawn) [Example 262], at most 10%.
On the same count and under the same terms, as for `CC(C)COc1cc(CNCC2CCNC2)cc(OCc2ccc(C(F)(F)F)cc2)c1` (stereo not drawn) [Example 264], the figure is at most 10%.
Still for that read-out and setting: as for `CC(C)COc1cc(CNCC2CCNC2)cc(OCc2ccc(C(F)(F)F)cc2C(F)(F)F)c1` (stereo not drawn) [Example 265], the figure is at most 10%.
`COc1cc(C#N)ccc1COc1cc(CNCC2CCNC2)cc(OCC(C)C)c1` (stereo not drawn) [Example 266]: the activity at 25 µM is at most 10%.
As to `CC(C)COc1cc(CNCC2CCNC2)cc(OCc2ccc(Cl)cn2)c1` (stereo not drawn) [Example 267], the activity at 25 µM was at most 10%.
Still for that read-out and setting: as for `CC(C)COc1cc(CNCC2CCNC2)cc(OCc2ccc(F)cc2Br)c1` (stereo not drawn) [Example 268], the figure is at most 10%; as for `CC(C)COc1cc(CNCC2CCNC2)cc(OCc2ccc(Cl)nc2)c1` (stereo not drawn) [Example 269], at most 10%.
Still for that read-out and setting: as for `CC(C)COc1cc(CNCC2CCNC2)cc(OCc2ccc(C(F)(F)F)cc2F)c1` (stereo not drawn) [Example 271], the figure is at most 10%; as for `C=CCOc1cc(/C=C/c2ccc(F)cc2)cc(CNCC2CNC2)c1` [Example 272], at most 10%.
The same measure, in the same setting: in the case of `CC(C)COc1cc(CNCC2CNC2)cc(OCc2ccc(C(C)(C)C)cc2)c1` [Example 274] it was at most 10%.
Regarding `C=CCOc1cc(/C=C/c2ccc(C(F)(F)F)cc2)cc(CNCC2CNC2)c1` [Example 275], the activity at 25 µM was at most 10%.

The same experiment, now with this note: Escherichia coli, ATCC25922, compound at 50 μM; minocycline 0.25 μg/mL; OD625 23 h minus 1 h; read-out: residual growth of E. coli ATCC25922 (% of uninhibited control) with minocycline.
Turning to `Ic1ccccc1COc1cccc(CNCC2CNC2)c1` [Example 195], the activity at 50 µM was at most 50%.
